IC50 data for five compounds are collected here from patent US7569572B2, “Pyrazolo[4,3-D]pyrimidines” (Pfizer Inc, priority 2004, dated 2009).

For this assay, the target named is T1, human platelet PDE5 (Homo sapiens, UniProt O76074).
T1 construct: utilizes PDE5 isolated from human platelets; from tissue; host or cells: human platelets
Kind of assay: Method B: PDE-5 Inhibition Scintillation Proximity Assay (SPA) - Human Platelet (modified protocol of Method A). The assay is classed as biochemical. Conditions: cGMP substrate 50 nM, PDE5 isolated from human platelets. How it is done:
Method B: PDE-5 Inhibition Scintillation Proximity Assay (SPA)—Human Platelet
This method is a modified protocol of Method A.
The assay measures the inhibition of human platelet PDE5 enzyme activity by a test compound in an in vitro assay that utilizes PDE5 isolated from human platelets. PDE5 catalyzes the hydrolysis of [^3H]cGMP to the 5′ nucleotide [^3H]GMP. [^3H]GMP binds to yttrium silicate SPA beads and is detected by scintillation counting. The inhibition of enzyme activity is calculated relative to total PDE5 activity of uninhibited controls.
PDE5 IC50 Assay: 96-Well Microtiter Plate Format
Buffer A: 20 mM Tris-HCl, 5 mM MgCl2, pH 7.4
Buffer B: 2 mg/ml BSA in Buffer A (enzyme buffer)
cGMP substrate: Final concentration of 50 nM in assay
The amount of ^3H-labeled substrate added depends upon the specific activity of [^3H]cGMP, and it is diluted in Buffer A.
PDE enzyme: Prepared in Buffer B. The dilution factor is determined by enzyme activity.
SPA beads: 4 mg/ml suspension prepared in dH2O.
Stocks of standard and test compounds are prepared at 2 mM in 100% DMSO. Compounds are serially diluted in separate dilution plates using an 8-point ⅕ log dilution format such that the starting concentration in the assay is 2 μM for an initial IC50 screen. 27 μl of Buffer A are added to the wells of the assay plates. From the dilution plates, 3 μl of diluted compounds are delivered in duplicate or 3 μl of 100% DMSO (for positive and negative controls) are added. 30 μl of enzyme are added. For the negative control wells, Buffer B is substituted in place of the enzyme. 30 μl of labeled substrate are added to all wells.
After incubating for 60 minutes at room temperature, the reaction is stopped with the addition of 30 μl of the yttrium silicate beads. These beads are dense and require constant agitation while being added to the plate. The plates are sealed and shaken on a plate shaker for fifteen minutes to allow the beads to bind the GMP product.
After allowing the beads to settle for 30 minutes, plates are read on a NXT TopCount and data is analyzed in the Bioassay Solver application. Percent inhibition values are calculated using the means of the 0% and 100% controls on each plate. The estimates of the 4-parameters of the logistic, sigmoid dose-response model are then calculated using the well-level percent inhibition values for each compound. These estimates are used to calculate the concentration that corresponds to 50% inhibition.
Background: In a scintillation proximity assay essentially only radioactivity close to the scintillant gives light.

Structures are written as SMILES. Structures can show the parent of a compound that is named as a salt.

`C[C@@H]1CN(c2nc(Nc3ccncn3)c3c(n2)c(CN2CCSCC2)nn3CCOCC(F)(F)F)CCN1` [Example 46, 5-[(3R)-3-methylpiperazin-1-yl]-N-pyrimidin-4-yl-3-(thiomorpholin-4-ylmethyl)-1-[2-(2,2,2-trifluoroethoxy)ethyl]-1H-pyrazolo[4,3-d]pyrimidin-7-amine trifluoroacetate] showed a half-maximal inhibitory concentration (IC50) of 140 pM.

Regarding `C[C@@H]1CN(c2nc(Nc3ccncn3)c3c(n2)c(CN2CCN(C)CC2)nn3CCOCC(F)(F)F)CCN1` [Example 47, 5-[(3R)-3-Methylpiperazin-1-yl]-3-[(4-methylpiperazin-1-yl)methyl]-N-pyrimidin-4-yl-1-[2-(2,2,2-trifluoroethoxy)ethyl]-1H-pyrazolo[4,3-d]pyrimidin-7-amine trifluoroacetate], half-maximal inhibition (IC50) was put at 470 pM. `CCN(CC)Cc1nn(CCOCC(F)(F)F)c2c(Nc3ccncn3)nc(N(CC)CC)nc12` [Example 48, 3-[(Diethylamino)methyl]-N^5,N^5-diethyl-N^7-pyrimidin-4-yl-1-[2-(2,2,2-trifluoroethoxy)ethyl]-1H-pyrazolo[4,3-d]pyrimidine-5,7-diamine trifluoroacetate] came in with a 50% inhibitory concentration (IC50) of 7390 pM. In the case of `C[C@@H]1CN(c2nc(Nc3ccncn3)c3c(n2)c(CN2CCS(=O)(=O)CC2)nn3CCOCC(F)(F)F)CCN1` [Example 49, 3-[(1,1-Dioxidothiomorpholin-4-yl)methyl]-5-[(3R)-3-methylpiperazin-1-yl]-N-pyrimidin-4-yl-1-[2-(2,2,2-trifluoroethoxy)ethyl]-1H-pyrazolo[4,3-d]pyrimidin-7-amine trifluoroacetate], the IC50 amounted to 580 pM. Compared with the last compound, the IC50 is about 13-fold lower. Under `FC(F)(F)CNCc1nn(CCOCC(F)(F)F)c2c(Nc3ccncn3)nc(N3CCNCC3)nc12` [Example 50, 1-(2-(2,2,2-trifluoroethoxy)ethyl)-3-((2,2,2-trifluoroethylamino)methyl)-5-(piperazin-1-yl)-N-(pyrimidin-4-yl)-1H-pyrazolo[4,3-d]pyrimidin-7-amine trifluoroacetate] stands 1060 pM.

For orientation: IC50 means the concentration needed to halve the response being measured.
